# Patent US10799501B2, “Combination of an inhibitor of PARP with an inhibitor of GSK-3 or DOT1L” (King's College London, priority 2015, dated 2020)
# What was measured:
# [1] = system: MLL-AF9 leukemic cells (wild type); test: C57Bl/6 mice transplanted with wild type MLL-AF9 leukemic cells, Olaparib treatment; type: in vivo, mouse; conditions: Olaparib 50 mg/kg daily
# Method: For Hoxa9 KO studies, we intravenously injected […] MLL-AF9 leukemic cells (wild type or Hoxa9−/− background) together with 2×10^5 bone marrow rescue cells into lethally irradiated C57Bl/6 mice (2 doses of irradiation 550 RADS each) for disease development. For drug studies, the control cohort received vehicle (10% 2-Hydroxpropyl-beta-cyclodextrin, HBC, Sigma-Aldrich) and the PARPi treatment group received daily Olaparib 50 mg/kg in 10% HBC for two-four weeks.
# [2] = system: NB4-LR2 (PML-RARα); test: In vitro PARPi treatment of human leukemic cell line NB4-LR2; type: cell-based
# Method: NB4-LR2 and THP1 cell lines (kindly provided by Dr Arthur Zelent and Professor Mel Greaves respectively) were cultured in RPMI (Invitrogen) supplemented with 10% selected FBS (R10), 2 mM L-Glutamine. Kasumi cell line (kindly provided by Dr Olaf Heidenreich) was cultured in RPMI-Hepes modified (Sigma) supplemented with 20% selected FBS and 2 mM L-[…]). Cell lines were validated by qPCR for their respective oncogenes. NIH3T3 and GP2 cell line was cultured in DMEM (Invitrogen) supplemented with 10% selected FBS and 2 mM L-Glutamine. Human primary AML cells were cultured in IMEM (Invitrogen) supplemented with […], 2 mM L-Glutamine, 10 ng/mL each of human cytokines, IL3, IL6, SCF, FLT3 ligand, and TPO. Cells were kept at 37° C. and 5% CO2. Use of human primary cells was approved by King's College London committee and consents of the patients were obtained. […] Colonies were scored 6-7 days after plating. […] Samples were then washed in PBS analysed at the FACS LSRII (BD Biosciences Pharmingen) with FACS Diva. […] Cells were counted in at least 5 fields for each slide, for a total of over 100 cells. The percentage of senescent cells was calculated by the percentage of the number of blue cell in the field.
# [3] = C57Bl6 mice succumbed with MLL-AF9 wild-type driven leukemia
smiles,measurement,setting,value
"O=C(c1cc(Cc2n[nH]c(=O)c3ccccc23)ccc1F)N1CCN(C(=O)C2CC2)CC1 [Olaparib, 4-[(3-[(4-cyclopropylcarbonyl)piperazin-4-yl]carbonyl)-4-fluorophenyl]methyl(2H)-phthalazin-1-one]",BM Engraftment (%),[1]; [3],93.30 ± 9.257%
same,Disease Latency (days; median),[1]; [3],34 days
same,Hematopoietic Liver Engraftment (%),[1]; [3],93.16 ± 6.838%
same,Hematopoietic Spleen Engraftment (%),[1]; [3],86.85 ± 13.12%
same,Liver,[1]; [3],4.204 ± 1.425 g
same,Spleen,[1]; [3],0.9309 ± 0.3767 g
same,effect on mice transplanted with wild type MLL-AF9 leukemic cells (survival),[1],did not have any significant effect
same,senescence and apoptosis,[2]; PARPi 72 hrs / 4 days,effectively induce senescence and apoptosis
same,colony forming ability,"[2]; methylcellulose 7 days, 5 μM Olaparib",reduced the colony forming ability
